Results from ChEMBL document CHEMBL1201862, “PubChem BioAssay data set” (2004).
Calls of active or inactive are those of the source.

How the values were obtained:
[1] = Luminescence Cell-Based Dose Confirmation HTS to Identify Inhibitors of Platelet Dense Granule Release. [Related pubchem assays: 1663 (Primary HTS), 1678 (Summary of Project)]; format: functional
[2] = target: Eukaryotic translation initiation factor 4H (Homo sapiens, UniProt Q15056); experiment: eIF4H binding inhibition – biochemical, uHTS, fluorescence polarization, translation initiation inhibitor project, primary screen (AID 2012)
[3] = target: Polyadenylate-binding protein 1 (Homo sapiens, UniProt P11940); experiment: blockers of PABP interaction with poly(A) – biochemical, fluorescence polarization, […] (AID 2014)
[4] = target: Luciferin 4-monooxygenase (Photinus pyralis, UniProt P08659); experiment: inhibition of purified Photinus pyralis luciferase – biochemical, luminescence, dose response (AID 1891)
[5] = HEK-293T cell viability reduction – luminescence, B-cell screen hits, cytotoxicity control for BCR NF-kB inhibitor project, dose response (AID 489021); format: functional, cell-based;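 further: HEK-293T cells carrying an NF-kB luciferase reporter; cells exposed to compound for about 14 hours before viability readout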
SUMO-activating enzyme [6] = target: T1, SUMO-activating enzyme (Homo sapiens, UniProt Q9UBT2); experiment: blockers of UBC9-mediated SUMO conjugation – biochemical, AlphaScreen, SUMOylation inhibitor project, confirmation (AID 2018); format: functional
SUMO-activating enzyme [7] = target: T1, SUMO-activating enzyme; experiment: blockers of SAE1/SAE2–UBC9 SUMO transfer – biochemical, HTRF, uHTS, primary screen (AID 2006); format: protein-complex assay
[8] = target: T2, Heat shock factor protein 1 (Mus musculus, UniProt P38532); experiment: enhancement of HSF1-driven luciferase signal – cell-based, NIH3T3, luminescence, dose retest, confirmation (AID 435004); format: functional;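 further: stress induced by proteasome inhibitor MG132 added 30 min after compound; luciferase reporter driven by HSF1 response element in NIH3T3 cells; actives raise luminescence as potentiators of the MG132 stress response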
T2 sequence (P38532 whole entry): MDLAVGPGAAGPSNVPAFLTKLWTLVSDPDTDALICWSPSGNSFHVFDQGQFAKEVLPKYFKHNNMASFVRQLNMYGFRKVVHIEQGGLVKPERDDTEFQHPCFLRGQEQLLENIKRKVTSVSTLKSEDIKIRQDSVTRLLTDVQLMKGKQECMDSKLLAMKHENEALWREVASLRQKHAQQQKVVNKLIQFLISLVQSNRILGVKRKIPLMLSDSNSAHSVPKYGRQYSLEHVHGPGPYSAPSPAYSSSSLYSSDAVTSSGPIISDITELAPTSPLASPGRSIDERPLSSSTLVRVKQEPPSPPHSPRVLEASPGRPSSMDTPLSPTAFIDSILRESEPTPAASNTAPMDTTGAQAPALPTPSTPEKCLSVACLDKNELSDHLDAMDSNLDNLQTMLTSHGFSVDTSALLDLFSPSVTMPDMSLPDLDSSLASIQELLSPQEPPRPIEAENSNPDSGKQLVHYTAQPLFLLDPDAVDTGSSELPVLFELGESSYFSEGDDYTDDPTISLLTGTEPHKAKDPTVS

X-box-binding protein 1 = X-box-binding protein 1 (Homo sapiens, UniProt P17861); format: functional, Cricetulus griseus;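 further: confirmatory dose-response counter-screen serving a CHOP assay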
[9] = target: DNA damage-inducible transcript 3 protein (Mus musculus, UniProt P35639); format: functional, Cricetulus griseus
HEK293 [10] = experiment: cells; format: functional, cell-based; conditions: Homo sapiens
HEK293 [11] = experiment: cells; format: functional, cell-based; conditions: Homo sapiens; remark: listed apart in the source
HEK293 [12] = experiment: cells; conditions: Homo sapiens
HEK293 [13] = experiment: cells; format: functional, cell-based; conditions: Homo sapiens; remark: listed apart in the source
Streptococcus = experiment: GAS UMAA2166 growth inhibition – luminescence, BacTiterGlo, counter-screen for streptokinase expression inhibitor project, dose response (AID 1915); format: functional, organism-based;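 further: potency for reduction of bacterial viability or growth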
HEK293 [14] = experiment: NOD2 signaling inhibitors in MDP-stimulated cells, cell-based, uHTS, luminescence (AID 2001); format: functional; conditions: Homo sapiens
[15] = tested on: Streptococcus sp. 'group A'; experiment: Streptococcus pyogenes SK(-)GAS viability under kanamycin – luminescence, BacTiterGlo, confirmation, counter-screen for streptokinase expression inhibitor project, dose response (AID 1900); format: functional, organism-based
[16] = target: T3, Nucleotide-binding oligomerization domain-containing protein 1 (Homo sapiens, UniProt Q9Y239); experiment: blockers of NOD1 pathway activity – revised, SAR follow-up (AID 2333); format: functional
T3 sequence (Q9Y239 whole entry): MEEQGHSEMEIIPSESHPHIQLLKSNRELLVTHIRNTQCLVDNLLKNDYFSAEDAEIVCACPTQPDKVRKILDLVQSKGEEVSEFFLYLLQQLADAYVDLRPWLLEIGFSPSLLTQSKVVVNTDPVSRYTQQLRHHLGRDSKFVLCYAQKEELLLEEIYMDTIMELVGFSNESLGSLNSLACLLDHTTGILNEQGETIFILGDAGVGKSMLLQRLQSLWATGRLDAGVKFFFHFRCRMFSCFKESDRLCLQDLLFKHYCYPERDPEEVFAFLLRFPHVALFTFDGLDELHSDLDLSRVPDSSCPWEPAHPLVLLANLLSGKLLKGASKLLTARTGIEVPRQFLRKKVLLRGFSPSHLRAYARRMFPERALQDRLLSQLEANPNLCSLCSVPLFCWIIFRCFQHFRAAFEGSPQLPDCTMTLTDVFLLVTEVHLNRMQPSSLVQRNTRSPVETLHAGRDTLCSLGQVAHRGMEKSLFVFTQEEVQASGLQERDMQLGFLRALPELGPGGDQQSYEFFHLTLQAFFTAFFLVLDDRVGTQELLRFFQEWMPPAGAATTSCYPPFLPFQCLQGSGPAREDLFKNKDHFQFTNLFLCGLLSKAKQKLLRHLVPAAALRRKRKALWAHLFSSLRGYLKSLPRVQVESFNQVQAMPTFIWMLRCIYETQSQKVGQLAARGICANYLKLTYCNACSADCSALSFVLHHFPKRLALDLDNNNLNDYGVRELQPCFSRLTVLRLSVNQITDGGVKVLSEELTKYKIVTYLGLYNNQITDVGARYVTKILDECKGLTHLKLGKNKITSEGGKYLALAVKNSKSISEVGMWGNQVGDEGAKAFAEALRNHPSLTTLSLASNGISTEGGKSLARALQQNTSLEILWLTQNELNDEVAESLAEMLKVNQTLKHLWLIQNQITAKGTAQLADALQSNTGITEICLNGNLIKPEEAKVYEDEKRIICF

[17] = target: T4, Nucleotide-binding oligomerization domain-containing protein 2 (Homo sapiens, UniProt Q9HC29); experiment: inhibition of NOD2-driven NF-kB reporter – cell-based, luminescence, uHTS, HEK293 (AID 1566); format: functional
HEK293 [18] = experiment: inhibition of NOD1-driven NF-kB reporter – cell-based, luminescence, uHTS, primary screen (AID 1578); format: functional; conditions: Homo sapiens
Tumor necrosis factor = Tumor necrosis factor (Homo sapiens, UniProt P01375); experiment: analog potency on TNFa NF-kB signaling – cell-based, revised, SAR follow-up (AID 2337); format: functional
[19] = target: T4, Nucleotide-binding oligomerization domain-containing protein 2; experiment: PubChem AID 2334; format: functional
[20] = target: Mothers against decapentaplegic homolog 3 (Homo sapiens, UniProt P84022); experiment: blockers of Smad3 complex formation in lysate – cell lysate, secondary confirmation, chemiluminescent ELISA, HEK293 lysate, dose response (AID 1058); format: functional
[21] = target: Eukaryotic translation initiation factor 4E (Mus musculus, UniProt P63073); experiment: blockers of eIF4G binding by eIF4E – biochemical, TR-FRET, dose response (AID 855); format: functional;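 further: potency for disrupting eIF4E binding to eIF4GI seen as loss of FRET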
[22] = target: Transitional endoplasmic reticulum ATPase (Homo sapiens, UniProt P55072, C522A); experiment: C522A mutant p97 ATPase inhibitors, dose response, counter-screen for p97 inhibitor project, biochemical, luminescence (AID 1544)
[23] = target: Transitional endoplasmic reticulum ATPase (Homo sapiens, UniProt P55072); experiment: p97 ATPase inhibitors, dose response, biochemical (AID 1534)

T1 sequence (Q9UBE0 whole entry): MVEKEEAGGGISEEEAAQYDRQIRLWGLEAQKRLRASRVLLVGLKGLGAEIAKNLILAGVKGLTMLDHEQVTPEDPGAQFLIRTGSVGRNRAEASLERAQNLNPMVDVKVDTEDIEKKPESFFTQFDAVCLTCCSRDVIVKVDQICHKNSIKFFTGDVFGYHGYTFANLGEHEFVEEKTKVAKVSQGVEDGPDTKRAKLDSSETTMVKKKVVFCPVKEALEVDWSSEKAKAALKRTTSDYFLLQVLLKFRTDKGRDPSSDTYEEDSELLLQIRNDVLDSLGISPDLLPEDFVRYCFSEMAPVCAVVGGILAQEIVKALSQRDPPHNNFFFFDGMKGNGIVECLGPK
T1 sequence (Q9UBT2 whole entry): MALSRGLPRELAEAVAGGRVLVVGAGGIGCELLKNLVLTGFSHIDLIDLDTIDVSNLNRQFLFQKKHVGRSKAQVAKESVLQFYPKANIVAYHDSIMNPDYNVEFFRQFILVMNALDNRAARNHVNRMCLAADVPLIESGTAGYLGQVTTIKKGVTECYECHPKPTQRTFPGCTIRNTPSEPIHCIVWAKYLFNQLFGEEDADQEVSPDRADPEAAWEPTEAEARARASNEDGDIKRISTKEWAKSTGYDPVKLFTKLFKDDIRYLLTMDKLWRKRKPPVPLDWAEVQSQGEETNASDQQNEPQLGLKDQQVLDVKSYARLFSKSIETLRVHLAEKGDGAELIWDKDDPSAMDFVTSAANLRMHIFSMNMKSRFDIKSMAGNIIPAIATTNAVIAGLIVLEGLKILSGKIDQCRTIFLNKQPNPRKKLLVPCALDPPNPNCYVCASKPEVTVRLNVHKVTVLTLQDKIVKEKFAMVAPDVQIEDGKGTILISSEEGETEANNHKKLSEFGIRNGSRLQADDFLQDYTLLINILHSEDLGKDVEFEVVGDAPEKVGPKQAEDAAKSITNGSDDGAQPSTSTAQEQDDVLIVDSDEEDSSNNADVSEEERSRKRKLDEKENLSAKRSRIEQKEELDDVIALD
T4 sequence (Q9HC29 whole entry, the tested form may be a part): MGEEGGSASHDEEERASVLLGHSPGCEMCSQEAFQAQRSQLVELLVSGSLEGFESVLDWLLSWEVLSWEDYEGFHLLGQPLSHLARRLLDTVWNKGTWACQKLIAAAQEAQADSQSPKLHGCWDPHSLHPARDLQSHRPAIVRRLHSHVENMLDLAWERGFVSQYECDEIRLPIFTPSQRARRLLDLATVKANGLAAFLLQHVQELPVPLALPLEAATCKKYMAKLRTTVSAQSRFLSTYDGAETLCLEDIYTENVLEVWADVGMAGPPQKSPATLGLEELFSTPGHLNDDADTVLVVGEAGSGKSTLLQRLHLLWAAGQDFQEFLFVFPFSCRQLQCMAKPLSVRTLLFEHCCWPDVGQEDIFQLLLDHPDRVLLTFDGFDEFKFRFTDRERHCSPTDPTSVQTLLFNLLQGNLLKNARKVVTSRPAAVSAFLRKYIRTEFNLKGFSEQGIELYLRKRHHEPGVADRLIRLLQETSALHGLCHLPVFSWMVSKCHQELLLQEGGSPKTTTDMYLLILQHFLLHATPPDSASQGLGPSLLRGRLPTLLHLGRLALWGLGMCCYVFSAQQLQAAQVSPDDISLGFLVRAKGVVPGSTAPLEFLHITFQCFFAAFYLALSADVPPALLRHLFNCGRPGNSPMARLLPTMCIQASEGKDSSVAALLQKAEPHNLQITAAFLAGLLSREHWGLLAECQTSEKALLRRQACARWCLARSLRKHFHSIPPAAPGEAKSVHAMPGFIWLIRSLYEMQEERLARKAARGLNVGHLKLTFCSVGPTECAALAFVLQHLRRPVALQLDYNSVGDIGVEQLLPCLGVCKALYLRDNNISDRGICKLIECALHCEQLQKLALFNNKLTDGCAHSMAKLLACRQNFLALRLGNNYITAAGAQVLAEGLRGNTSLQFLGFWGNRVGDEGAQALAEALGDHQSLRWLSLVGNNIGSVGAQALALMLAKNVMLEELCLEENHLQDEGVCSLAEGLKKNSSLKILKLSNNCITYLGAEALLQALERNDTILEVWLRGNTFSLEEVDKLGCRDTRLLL
Sequence of Luciferin 4-monooxygenase (P08659 whole entry): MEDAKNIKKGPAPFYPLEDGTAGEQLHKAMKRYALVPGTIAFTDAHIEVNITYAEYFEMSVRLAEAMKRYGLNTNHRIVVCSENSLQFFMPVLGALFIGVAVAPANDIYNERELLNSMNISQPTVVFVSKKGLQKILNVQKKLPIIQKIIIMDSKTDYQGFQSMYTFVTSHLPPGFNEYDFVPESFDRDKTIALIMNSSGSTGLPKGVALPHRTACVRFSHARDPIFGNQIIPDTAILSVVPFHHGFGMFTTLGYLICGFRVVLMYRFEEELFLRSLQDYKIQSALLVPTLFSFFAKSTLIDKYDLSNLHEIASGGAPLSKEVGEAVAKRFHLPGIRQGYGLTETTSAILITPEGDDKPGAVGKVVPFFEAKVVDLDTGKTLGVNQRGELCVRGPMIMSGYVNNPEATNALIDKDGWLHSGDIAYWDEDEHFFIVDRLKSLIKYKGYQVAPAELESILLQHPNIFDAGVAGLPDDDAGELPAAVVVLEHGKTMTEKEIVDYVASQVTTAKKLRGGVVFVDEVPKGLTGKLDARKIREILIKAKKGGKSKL
Sequence of Mothers against decapentaplegic homolog 3 (P84022 whole entry): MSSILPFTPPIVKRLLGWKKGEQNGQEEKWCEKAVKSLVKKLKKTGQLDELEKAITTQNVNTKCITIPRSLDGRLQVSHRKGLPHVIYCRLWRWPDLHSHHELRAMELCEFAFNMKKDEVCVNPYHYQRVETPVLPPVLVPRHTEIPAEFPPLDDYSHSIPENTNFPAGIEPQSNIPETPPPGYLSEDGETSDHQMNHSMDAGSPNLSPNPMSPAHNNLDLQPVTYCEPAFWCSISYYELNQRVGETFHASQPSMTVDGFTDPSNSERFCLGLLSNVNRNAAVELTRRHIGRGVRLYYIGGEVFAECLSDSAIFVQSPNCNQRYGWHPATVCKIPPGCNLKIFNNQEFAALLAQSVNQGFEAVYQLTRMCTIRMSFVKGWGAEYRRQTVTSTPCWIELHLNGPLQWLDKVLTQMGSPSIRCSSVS
Sequence of DNA damage-inducible transcript 3 protein (P35639 whole entry): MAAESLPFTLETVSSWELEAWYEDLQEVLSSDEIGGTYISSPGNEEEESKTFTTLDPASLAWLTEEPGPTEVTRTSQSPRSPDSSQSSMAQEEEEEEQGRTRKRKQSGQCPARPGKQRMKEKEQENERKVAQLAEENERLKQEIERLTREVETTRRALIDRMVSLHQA
Sequence of Eukaryotic translation initiation factor 4E (P63073 whole entry): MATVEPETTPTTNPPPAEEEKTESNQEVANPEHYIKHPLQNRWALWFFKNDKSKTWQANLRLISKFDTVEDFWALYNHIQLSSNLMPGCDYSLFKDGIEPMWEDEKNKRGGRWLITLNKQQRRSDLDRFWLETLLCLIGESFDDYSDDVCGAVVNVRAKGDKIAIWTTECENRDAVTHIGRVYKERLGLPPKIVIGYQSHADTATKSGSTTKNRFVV
Sequence of Tumor necrosis factor (P01375 whole entry, the tested form may be a part): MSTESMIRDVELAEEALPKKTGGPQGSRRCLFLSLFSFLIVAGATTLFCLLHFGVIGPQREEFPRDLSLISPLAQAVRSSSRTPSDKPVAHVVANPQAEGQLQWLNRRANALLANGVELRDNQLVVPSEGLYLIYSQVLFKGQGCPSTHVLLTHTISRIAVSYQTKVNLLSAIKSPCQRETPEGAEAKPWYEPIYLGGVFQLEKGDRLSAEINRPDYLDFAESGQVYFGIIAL
Sequence of Polyadenylate-binding protein 1 (P11940 whole entry): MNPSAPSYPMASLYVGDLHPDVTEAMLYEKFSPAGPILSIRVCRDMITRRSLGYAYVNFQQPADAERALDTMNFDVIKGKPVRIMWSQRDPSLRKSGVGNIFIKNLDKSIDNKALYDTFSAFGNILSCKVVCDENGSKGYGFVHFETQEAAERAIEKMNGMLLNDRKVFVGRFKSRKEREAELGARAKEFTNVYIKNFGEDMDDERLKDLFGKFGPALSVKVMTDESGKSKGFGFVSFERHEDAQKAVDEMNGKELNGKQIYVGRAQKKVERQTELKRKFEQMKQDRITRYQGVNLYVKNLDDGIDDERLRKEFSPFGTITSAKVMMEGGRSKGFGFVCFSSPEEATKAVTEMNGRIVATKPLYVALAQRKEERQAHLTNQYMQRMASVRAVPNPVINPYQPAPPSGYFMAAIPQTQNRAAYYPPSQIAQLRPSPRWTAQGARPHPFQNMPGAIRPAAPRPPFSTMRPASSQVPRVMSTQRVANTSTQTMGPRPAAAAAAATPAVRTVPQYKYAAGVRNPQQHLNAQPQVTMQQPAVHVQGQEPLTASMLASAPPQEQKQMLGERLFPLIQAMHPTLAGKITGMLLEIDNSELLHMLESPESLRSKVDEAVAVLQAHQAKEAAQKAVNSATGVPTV
Sequence of X-box-binding protein 1 (P17861 whole entry): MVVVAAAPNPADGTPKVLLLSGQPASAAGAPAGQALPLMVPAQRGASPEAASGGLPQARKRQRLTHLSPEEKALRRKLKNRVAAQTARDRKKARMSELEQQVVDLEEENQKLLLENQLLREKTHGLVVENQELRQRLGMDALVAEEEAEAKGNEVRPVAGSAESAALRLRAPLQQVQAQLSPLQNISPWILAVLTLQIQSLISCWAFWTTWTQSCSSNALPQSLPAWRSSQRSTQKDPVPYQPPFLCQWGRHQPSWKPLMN

With `CCCCn1c2c(c(=N)c3ccccc31)CCC2` the EC50 [1] was 1.25 µM (active), the IC50 [2] was > 100 µM (inactive) and the IC50 [3] was 3.5 µM (active). The EC50 [4] was > 112 µM (not active) and the IC50 [5] was > 80 µM (inactive).

With `N=c1c(S(=O)(=O)c2ccc(Cl)cc2)cc2c(=O)n3ccccc3nc2n1Cc1ccco1` the IC50 (SUMO-activating enzyme [6]) was 20.9 µM (active), the IC50 (SUMO-activating enzyme [7]) was 4.47 µM (active) and the EC50 [8] was > 260 µM (inactive).

In the case of `Cc1cc(C)c2nc(-c3ccccn3)cc(C(=O)Nc3cc(C)on3)c2c1`, the “Absolute IC50 (XBP1)” value (X-box-binding protein 1) is reported as 10 µM and the “Absolute IC50 (CHOP)” value [9] is reported as 10 µM.

In the case of `CCCCCCCn1c(=O)c(C(=O)Nc2cnccn2)c(O)c2ccccc21`, the IC50 (HEK293 [10]) is reported as > 20 µM (inactive), the IC50 (HEK293 [11]) is reported as > 20 µM (inactive) and the IC50 (HEK293 [12]) is reported as > 20 µM (inactive). For the same molecule, the IC50 (HEK293 [13]) was > 20 µM (inactive), the EC50 (Streptococcus) was 6.65 µM (active) and the IC50 (HEK293 [14]) was 6.85 µM (active). The EC50 [15] was 2.88 µM (active), the IC50 [16] was 5.6 µM (active) and the EC50 [17] was 7.83 µM (active). For the same molecule, the EC50 (HEK293 [18]) was 6.35 µM (active), the IC50 (Tumor necrosis factor) was 3.18 µM (active) and the IC50 [19] was 8.05 µM (active).

For `O=c1cc2oc3cc(O)c(O)cc3c(-c3ccccc3)c-2cc1O`, the IC50 [20] was < 1.25 µM (not active).

For `CN(C)[C@@H]1C(O)=C(C(N)=O)C(=O)[C@@]2(O)C(O)=C3C(=O)c4c(O)cccc4[C@@](C)(O)[C@H]3[C@H](O)[C@@H]12` [OXYTETRACYCLINE], the IC50 [21] was 50 µM (inactive), the IC50 [22] was > 50 µM (not active) and the IC50 [23] was > 50 µM (not active).
